According to patent US20200390766A1, “PHARMACEUTICAL COMPOSITION” (Kowa Company, Ltd., priority 2019, published 2020):

What was measured:
Format in all cases: in vivo, male ICR mice
[1] = test system: pulmonary fibrosis model mice exposed to bleomycin in the trachea; assay: Therapeutic effect on pulmonary fibrosis (Example 2): amount of hydroxyproline in the lungs; conditions: day 21, Dunnett test, FIG. 3
Method: The lung tissue extracted from the mouse was homogenized in a PBS solution, then mixed with an equal volume of 12N hydrochloric acid in a tube, and incubated at 110° C. for 20 to 24 hours. After the incubation, the solution was volatilized by opening the tube and continuing the incubation. Thereafter, the resulting mixture was suspended in a citrate acetate buffer (5% citric acid, 1.2% glacial acetic acid, 7.25% sodium acetate, 3.4% sodium hydroxide, pH 6.0), and the solution filtered with a 0.45 μm diameter centrifugal filter was used as a sample. 10 μL of the sample was added with 100 μL of chloramine T solution (1.4% chloramine T, 10% n-propanol, 80% citrate acetate buffer) and incubated at room temperature for 20 minutes, then added with 100 μL of Ehrlich's reagent (1 M p-dimethylamino benzaldehyde, 20% perchloric acid, 50% n-propanol) and incubated at 65° C. for 15 minutes, and the absorbance at 550 nm was measured to quantify the amount of hydroxyproline.
(§1) Compound A was dissolved in a 0.5% aqueous solution of methylcellulose (methylcellulose: Shin-Etsu Chemical Co., Ltd., distilled water: Otsuka Pharmaceutical Factory, Inc.) to prepare a sample solution. Further, losartan (Tokyo Chemical Industry Co., Ltd.) was dissolved in a 0.5% aqueous solution of methylcellulose to prepare a sample solution. Furthermore, pirfenidone (Ark Pharma Inc.) was dissolved in a 0.5% aqueous solution of carboxymethyl cellulose (carboxymethyl cellulose: Maruishi Pharmaceutical Co., Ltd.) to prepare a sample solution.
Model mice were prepared in the same manner as in Example 1.
(§2) Investigation was conducted in mice not exposed to bleomycin (exposed to physiological saline in the trachea) in the normal group (6 mice), and pulmonary fibrosis model mice exposed to bleomycin in the trachea divided into 4 groups (control, compound A 50 mg/kg/day, losartan 50 mg/kg/day, and pirfenidone 400 mg/kg/day; 10 mice in each group). […]
The amount of hydroxyproline in the mice was measured by the same method as in Example 1.

[2] = test system: pulmonary fibrosis model mice exposed to bleomycin in the trachea; assay: Preventive effect on pulmonary fibrosis (Example 1): lung wet weight; conditions: FIG. 1; for lung weight as compared to the normal group: lungs extracted 21 days after exposure
Method: as §1, with “methylcellulose” for “carboxymethyl cellulose (carboxymethyl cellulose: Maruishi Pharmaceutical Co., Ltd.)”
(§3) 6-week-old male ICR mice (Japan SLC, Inc.) were exposed to bleomycin (Nippon Kayaku Co., Ltd.) (1.5 mg/kg) dissolved in physiological saline in the trachea to prepare pulmonary fibrosis model mice.
Investigation was conducted in mice not exposed to bleomycin (exposed to physiological saline in the trachea) in the normal group (6 mice), and pulmonary fibrosis model mice exposed to bleomycin in the trachea divided into 4 groups (control, compound A 50 mg/kg/day, losartan 50 mg/kg/day, and pirfenidone 400 mg/kg/day; 10 mice in each group). From the day after exposure to bleomycin, a 0.5% aqueous solution of methylcellulose was orally administered (administered twice a day) to the normal group and the control group, the sample solution of compound A prepared above was orally administered (administered once a day) to the compound A administration group, the sample solution of losartan prepared above was orally administered (administered once a day) to the losartan administration group, and the sample solution of pirfenidone prepared above was orally administered (administered twice a day) to the pirfenidone administration group, respectively. Twenty-one days after the bleomycin exposure, the mice were anesthetized and whole lung tissues were extracted.
After washing the lung tissue extracted from the mouse with physiological saline, water was removed with a filter paper, and the wet weight was measured.

[3] = test system: pulmonary fibrosis model mice exposed to bleomycin in the trachea; assay: Preventive effect on pulmonary fibrosis (Example 1): amount of hydroxyproline in the lungs; conditions: 50 mg/kg/day oral once a day from the day after bleomycin exposure, day 21, FIG. 2; for amount of hydroxyproline in the lungs as compared to the control group: Dunnett test
Method: as §1, with “methylcellulose” for “carboxymethyl cellulose (carboxymethyl cellulose: Maruishi Pharmaceutical Co., Ltd.)”
as §3, §2
The lung tissue extracted from the mouse was homogenized in a PBS solution, then mixed with an equal volume of 12N hydrochloric acid in a tube, and incubated at 110° C. for 20 to 24 hours. […] 10 μL of the sample was added with 100 μL of chloramine T solution (1.4% chloramine T, 10% n-propanol, 80% citrate acetate buffer) and incubated at room temperature for 20 minutes, then added with 100 μL of Ehrlich's reagent (1 M p-dimethylamino benzaldehyde, 20% perchloric acid, 50% n-propanol) and incubated at 65° C. for 15 minutes, and the absorbance at 550 nm was measured to quantify the amount of hydroxyproline.

[4] = 50 mg/kg/day oral once a day from the 7th day after bleomycin exposure
[5] = 50 mg/kg/day oral once a day from the day after bleomycin exposure

SMILES	amount of hydroxyproline in the lungs as compared to the control group ([1]; 400 mg/kg/day oral twice a day from the 7th day after bleomycin exposure)	lung weight as compared to the normal group ([2]; 400 mg/kg/day oral twice a day from the day after bleomycin exposure)	amount of hydroxyproline in the lungs as compared to the control group [3]	amount of hydroxyproline in the lungs as compared to the control group [1, 4]	lung weight as compared to the normal group [2, 5]	decrease of hydroxyproline in the lung relative to the losartan administration group [3]	lung weight as compared with the control group ([2]; 50 mg/kg/day oral once a day from the day after bleomycin exposure, day 21, Dunnett test)
Cc1ccc(=O)n(-c2ccccc2)c1 [pirfenidone]	no significant difference	significant increase in lung weight	–	–	–	–	–
CCCCc1nc(Cl)c(CO)n1Cc1ccc(-c2ccccc2-c2nn[nH]n2)cc1 [losartan]	–	–	significant decrease in hydroxyproline in the lung	no significant difference	significant increase in lung weight	–	–
CCCc1nc(C(C)C)n(-c2ncc(OCC)cn2)c(=O)c1Cc1ccc(-c2ccccc2-c2noc(=O)[nH]2)nc1 [compound A, 3-[2-(5-{[1-(5-ethoxypyrimidin-2-yl)-2-isopropyl-6-oxo-4-propyl-1,6-dihydropyrimidin-5-yl]methyl}pyridin-2-yl)phenyl]-1,2,4-oxadiazol-5(4H)-one]	–	–	significant decrease in hydroxyproline in the lung	significant decrease in hydroxyproline in the lung	no significant increase in lung weight	larger decrease than the losartan administration group	significant decrease in lung weight
